In patent publication US20060276520A1 (priority 2002, published 2006):
Several values for one entry are separate records, joined by “and”; a condition that tells them apart may be missing. Equal values may be shown once.

biological target: MDM2/P53 (Homo sapiens, UniProt Q00987); assay: biochemical
Sequence (Q00987 whole entry): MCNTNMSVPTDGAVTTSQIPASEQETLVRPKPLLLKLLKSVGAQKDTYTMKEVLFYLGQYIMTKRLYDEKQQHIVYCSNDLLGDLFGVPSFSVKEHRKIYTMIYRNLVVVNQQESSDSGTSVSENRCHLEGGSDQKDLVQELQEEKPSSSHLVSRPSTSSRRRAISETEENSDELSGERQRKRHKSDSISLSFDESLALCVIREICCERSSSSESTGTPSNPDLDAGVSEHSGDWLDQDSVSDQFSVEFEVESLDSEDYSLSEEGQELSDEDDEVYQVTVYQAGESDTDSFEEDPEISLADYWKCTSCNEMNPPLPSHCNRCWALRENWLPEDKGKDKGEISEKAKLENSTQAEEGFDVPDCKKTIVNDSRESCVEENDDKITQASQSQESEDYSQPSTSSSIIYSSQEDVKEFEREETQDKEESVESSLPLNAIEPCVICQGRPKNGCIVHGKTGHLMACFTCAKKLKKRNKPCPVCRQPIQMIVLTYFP

IC50 [µM]	SMILES
7.94	CN1C(=O)/C(=C/c2ccc(-c3ccc(S(N)(=O)=O)cc3)o2)SC1=S [Compound 23, 4-{5-[(Z)-(3-methyl-4-oxo-2-thioxo-1,3-thiazolidin-5-ylidene)methyl]-2-furyl}benzenezulffonamide]
5.64	O=C(O)CCN1C(=O)/C(=C/c2ccc(-c3ccc(Br)cc3)o2)SC1=S [Compound 25, 3-((5Z)-5-{[5-(4-bromophenyl)-2-furyl]methylene}-4-oxo-2-thioxo-1,3-thiazolidin-3-yl)propanoic acid]
10.7	O=C1/C(=C/c2ccc(-c3ccc(Br)cc3)o2)SC(=S)N1c1ccccc1 [Compound 27, (5Z)-5-{[5-(4-bromophenyl)-2-furyl]methylene}-3-phenyl-2-thioxo-1,3-thiazolidin-4-one]
0.8	O=C1/C(=C/c2ccc(-c3ccccc3)o2)SC(=S)N1c1ccccc1 [Compound 28, (5Z)-3-phenyl-5-[(5-phenyl-2-furyl)methylene]-2-thioxo-1,3-thiazolidin-4-one]
1.21	CN1C(=O)/C(=C\c2ccc(-c3ccc(Cl)cc3)o2)SC1=S [Compound 29, (5E)-5-{[5-(4-chlorophenyl)-2-furyl]methylene}-3-methyl-2-thioxo-1,3-thiazolidin-4-one]
6.1	CN1C(=O)/C(=C/c2ccc(-c3cccc4ccccc34)o2)SC1=S [Compound 33, (5Z)-3-methyl-5-{[5-(1-naphtthyl)-2-furyl]methylene}-2-thioxo-1,3-thiazolidin-4-one]
5.52	O=C1/C(=C\c2ccc(-c3ccc(Cl)cc3)o2)SC(=S)N1C1CCS(=O)(=O)C1 (stereo not drawn) [Compound 40, (5E)-5-{[5-(4-chlorophenyl)-2-furyl]methylene}-3-(1,1-dioxidotetrahydro-3-thienyl)-2-thioxo-1,3-thiazolidin-4-one]
14.2	CCOc1ccc(N2C(=O)/C(=C\c3ccc(-c4ccc(Br)cc4)o3)SC2=S)cc1 [Compound 69, (5E)-5-{[5-(4-bromophenyl)-2-furyl]mthylene}-3-(4-ethoxyphenyl)-2-thioxo-1,3-thiazolidin-4-one]
13.6	O=C1/C(=C\c2ccc(-c3ccc([N+](=O)[O-])cc3)o2)SC(=S)N1CCc1ccccc1 [Compound 75, (5E)-5-{[5-(4-nitrophenyl)-2-furyl]methylene}-3-(2-phenylethyl)-2-thioxo-1,3-thiazolidin-4-one]
0.81	O=C(O)CCN1C(=O)/C(=C/c2ccc(-c3ccc(Cl)cc3Cl)o2)SC1=S [Compound 77, 3-((5Z)-5-{[5-(2,4-dichlorophenyl)-2-furyl]methylene}-4-oxo-2-thioxo-1,3-thiazolidin-3-yl)propanoic acid]
11.6	O=C1/C(=C\c2ccc(-c3cccc([N+](=O)[O-])c3)o2)SC(=S)N1Cc1ccccc1 [Compound 98, (5E)-3-benzyl-5-{[5-(3-nitrophenyl)-2-furyl]methylene}-2-thioxo-1,3-thiazolidin-4-one]
0.21	O=C1/C(=C\c2ccc(-c3ccccc3Cl)o2)SC(=S)N1C1CCS(=O)(=O)C1 (stereo not drawn) [Compound 99, (5E)-5-{[5-(2-chlorophenyl)-2-furyl]methylene}-3-(1,1-dioxidotetrahydro-3-thienyl)-2-thioxo-1,3-thiazolidin-4-one]
3.87	NS(=O)(=O)c1ccc(-c2ccc(/C=C3\SC(=S)N(CCc4ccccc4)C3=O)o2)cc1 [Compound 103, 4-(5-{(Z)-[4-oxo-3-(2-phenylethyl)-2-thioxo-1,3-thiazolidin-5-ylidene]methyl}-2-furyl)benzenesulfonamide]
24.8	O=C1/C(=C/c2ccc(-c3cccc([N+](=O)[O-])c3)o2)SC(=S)N1CC1CCCO1 (stereo not drawn) [Compound 254, (5Z)-5-{[5-(3-nitrophenyl)-2-furyl]methylene}-3-(tetrahydrofuran-2-ylmethyl)-2-thioxo-1,3-thiazolidin-4-one]
0.53	O=C(O)CCN1C(=O)/C(=C\c2ccc(-c3ccc(Cl)c(Cl)c3)o2)SC1=S [Compound 256, 3-((5E)-5-{[5-(3,4-dichlorophenyl)-2-furyl]methylene}-4-oxo-2-thioxo-1,3-thiazolidin-3-yl)propanoic acid]
5.21	O=C1/C(=C/c2ccc(-c3ccccc3Cl)o2)SC(=S)N1CCc1ccccn1 [Compound 278, (5Z)-5-{[5-(2-chlorophenyl)-2-furyl]methylene}-3-(2-pyridin-2-ylethyl)-2-thioxo-1,3-thiazolidin-4-one]
0.45	O=C1/C(=C/c2ccc(-c3ccccc3Cl)o2)SC(=S)N1Cc1ccc2c(c1)OCO2 [Compound 299, (5Z)-3-(1,3-benzodioxol-5-ylmethyl)-5-{[5-(2-chlorophenyl)-2-furyl]methylene}-2-thioxo-1,3-thiazolidin-4-one]
4.6	C[C@H](NC(=O)CN1C(=O)/C(=C/c2ccc(-c3ccccc3Cl)o2)SC1=S)C(=O)OC(C)(C)C [Compound 302, tert-butyl N-[((5Z)-5-{[5-(2-chlorophenyl)-2-furyl]methylene}-4-oxo-2-thioxo-1,3-thiazolidin-3-yl)acetyl]alaninate]
10.8	O=C1C(Cc2ccc(-c3ccccc3Cl)o2)SC(=S)N1Cc1ccc2c(c1)OCO2 (stereo not drawn) [Compound 305, 3-(1,3-benzodioxol-5-ylmethyl)-5-{[5-(2-chlorophenyl)-2-furyl]methyl}-2-thioxo-1,3-thiazolidin-4-one]

biological target: APC2/APC11 (Homo sapiens, UniProt Q9NYG5+Q9UJX6); assay: biochemical
Sequence (Q9UJX6 whole entry): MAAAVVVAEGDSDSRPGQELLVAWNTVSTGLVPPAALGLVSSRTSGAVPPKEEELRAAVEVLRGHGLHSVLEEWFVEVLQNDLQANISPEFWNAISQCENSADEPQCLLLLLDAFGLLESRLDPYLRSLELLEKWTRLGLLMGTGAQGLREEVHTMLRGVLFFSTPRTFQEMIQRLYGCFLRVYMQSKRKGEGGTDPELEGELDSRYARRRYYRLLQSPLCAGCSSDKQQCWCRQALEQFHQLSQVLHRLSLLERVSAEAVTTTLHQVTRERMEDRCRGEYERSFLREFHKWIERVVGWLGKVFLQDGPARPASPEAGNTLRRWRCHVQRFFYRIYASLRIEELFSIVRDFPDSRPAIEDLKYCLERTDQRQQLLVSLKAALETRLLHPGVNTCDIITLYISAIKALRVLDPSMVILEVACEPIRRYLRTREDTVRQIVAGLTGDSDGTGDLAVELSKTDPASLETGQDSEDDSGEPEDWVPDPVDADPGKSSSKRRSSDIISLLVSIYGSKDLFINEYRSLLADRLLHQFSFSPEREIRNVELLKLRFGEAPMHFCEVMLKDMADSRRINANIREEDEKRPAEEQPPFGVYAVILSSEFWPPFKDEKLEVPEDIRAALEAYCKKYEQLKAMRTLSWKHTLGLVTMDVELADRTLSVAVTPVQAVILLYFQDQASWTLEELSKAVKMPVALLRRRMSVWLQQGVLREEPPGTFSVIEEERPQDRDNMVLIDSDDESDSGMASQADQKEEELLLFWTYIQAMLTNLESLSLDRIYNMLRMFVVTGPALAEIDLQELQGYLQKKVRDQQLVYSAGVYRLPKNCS
Sequence (Q9NYG5 whole entry): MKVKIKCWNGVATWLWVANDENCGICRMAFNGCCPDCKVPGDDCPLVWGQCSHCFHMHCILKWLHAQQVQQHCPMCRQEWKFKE

IC50	SMILES
5.15 µM	CN1C(=O)/C(=C/c2ccc(-c3ccc(S(N)(=O)=O)cc3)o2)SC1=S [Compound 23, 4-{5-[(Z)-(3-methyl-4-oxo-2-thioxo-1,3-thiazolidin-5-ylidene)methyl]-2-furyl}benzenezulffonamide]
2.06 µM	O=C(O)CCN1C(=O)/C(=C/c2ccc(-c3ccc(Br)cc3)o2)SC1=S [Compound 25, 3-((5Z)-5-{[5-(4-bromophenyl)-2-furyl]methylene}-4-oxo-2-thioxo-1,3-thiazolidin-3-yl)propanoic acid]
1.44 µM	CN1C(=O)/C(=C\c2ccc(-c3ccc(Cl)cc3)o2)SC1=S [Compound 29, (5E)-5-{[5-(4-chlorophenyl)-2-furyl]methylene}-3-methyl-2-thioxo-1,3-thiazolidin-4-one]
0.2 µM	C=CCN1C(=O)/C(=C\c2ccc(-c3cccc(C(F)(F)F)c3)o2)SC1=S [Compound 63, (5E)-3-allyl-2-thioxo-5-({5-[3-(trifluoromethyl)phenyl]-2-furyl}methylene)-1,3-thiazolidin-4-one]
10 µM	O=C(O)CN1C(=O)/C(=C\c2ccc(-c3ccc(Cl)cc3)o2)SC1=S [Compound 145, ((5E)-5-{[5-(4-chlorophenyl)-2-furyl]methylene}-4-oxo-2-thioxo-1,3-thiazolidin-3-yl)acetic acid]
10 µM	O=C(O)CN1C(=O)/C(=C\c2ccc(-c3cccc(C(F)(F)F)c3)o2)SC1=S [Compound 146, [(5E)-4-oxo-2-thioxo-5-({5-[3-(trifluoromethyl)phenyl]-2-furyl]methylene)-1,3-thiazolidin-3-yl]acetic acid]
0.4 µM and 0.7 µM	O=C(O)c1cccc(-c2ccc(/C=C3\SC(=S)N(C4CCCCC4)C3=O)o2)c1 [Compound 176, 3-{5-[(Z)-(3-cyclohexyl-4-oxo-2-thioxo-1,3-thiazolidin-5-ylidene)methyl]-2-furyl}benzoic acid]
0.1 µM	CN1C(=O)/C(=C\c2ccc(-c3cccc([N+](=O)[O-])c3)o2)SC1=S [Compound 183, (5E)-3-methyl-5-{[5-(3-nitrophenyl)-2-furyl]methylene}-2-thioxo-1,3-thiazolidin-4-one]
0.1 µM	O=C1/C(=C/c2ccc(-c3ccc([N+](=O)[O-])cc3)o2)SC(=S)N1Cc1ccccc1 [Compound 199, (5Z)-3-benzyl-5-{[5-(4-nitrophenyl)-2-furyl]methylene}-2-thioxo-1,3-thiazolidin-4-one]
5 µM	O=C1NC(=S)S/C1=C/c1ccc(-c2ccc(Cl)cc2)o1 [Compound 238, (5E)-5-{[5-(4-chlorophenyl)-2-furyl]methylene}-2-thioxo-1,3-thiazolidin-4-one]
3 µM	O=C1NC(=S)S/C1=C/c1ccc(-c2cc(Cl)ccc2Cl)o1 [Compound 270, (5E)-5-{[5-(2,5-dichlorophenyl)-2-furyl]methylene}-2-thioxo-1,3-thiazolidin-4-one]
